# Values of other authors in patent publication US8071602B2, “Piperidine and piperazine derivatives” (M's Science Corporation, priority 2005, dated 2011).
# System: rats
# Conditions: microinjection
row,SMILES,neck dystonia
1,"Cc1ccccc1NC(=N)Nc1ccccc1C [DTG, 1,3-di-2-tolyl-guanidine]",induced neck dystonia
2,"COc1ccc(CCN2CCN(CCCc3ccccc3)CC2)cc1OC [SA-4503, 1-[2-(3,4-dimethoxyphenyl)ethyl]-4-(3-phenylpropyl)piperazine]",no effect
